Reference: patent US20250154169A1, “COMPOUNDS AND METHODS FOR MODULATING SPLICING” (REMIX THERAPEUTICS INC., priority 2021, published 2025)
Like-named read-outs stand apart in the source and are kept apart here.

Assays:
Assay type in all cases: cell-based, human
HTT mRNA [1] = experiment: Splicing RT-qPCR assay, HTT canonical (CJ) and alternative (AJ) junction mRNA; details: Homo sapiens, A673 or K562 cells, 24 hours compound treatment; for IC50: 24 h, read-out: HTT CJ (IC50, decrease in canonical junction mRNA); for AC50: read-out: HTT AJ (AC50, increase in alternative junction mRNA)
Procedure, shortened: (§1)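 A673 or K562 cells were treated 24 h at 37 °C with an 11-point 3-fold compound dilution series (top 10 uM, DMSO ≤0.25%). Lysates went to one-step RT-qPCR measuring canonical (CJ) and alternative-exon (AJ) junction transcripts, normalized to GAPDH, GUSB or PPIA.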

MYB mRNA = experiment: Splicing RT-qPCR assay, MYB canonical (CJ) and alternative (AJ) junction mRNA; details: Homo sapiens; for AC50: read-out: MYB AJ (AC50, increase in alternative junction mRNA)
Procedure, shortened: as §1

SMN2 mRNA = experiment: Splicing RT-qPCR gene panel, SMN2 canonical junction (CJ) mRNA; details: Homo sapiens, Tables 4A/4B, read-out: SMN2 (IC50, decrease in CJ mRNA, gene panel)
Procedure: (§2) Compounds described herein were used to modulate RNA transcript abundance in cells. The expression of a target mRNA was measured by detecting the formation of an exon-exon junction in the canonical transcript (CJ). A compound mediated exon-inclusion event was detected by observing an increase in formation of a new junction with an alternative exon (AJ). Real-time qPCR assays were used to detect these splicing switches and interrogate the potency of various compounds towards different target genes. A high-throughput real time quantitative PCR (RT-qPCR) assay was developed to measure these two isoforms of the mRNA (CJ and AJ) for exemplary genes, such as HTT, SMN2, and MYB, together with a control housekeeping gene, GAPDH or GUSB or PPIA, used for normalization. Briefly, the A673 or K562 cell line was treated with various compounds described herein (e.g., compounds of Formula (I)). After treatment, the levels of the HTT, MYB, or SMN2 mRNA targets were determined from each sample of cell lysate by cDNA synthesis followed by qPCR.
(§3) The A673 cell line was cultured in DMEM with 10% FBS. Cells were diluted with full growth media and plated in a 96-well plate (15,000 cells in 100 ul media per well). The plate was incubated at 37° C. with 5% CO2 for 24 hours to allow cells to adhere. An 11-point 3-fold serial dilution of the compounds was made in DMSO then diluted in media in an intermediate plate. Compounds were transferred from the intermediate plate to the cell plate with the top dose at a final concentration of 10 uM in the well. Final DMSO concentration was kept at or below 0.25%. The cell plate was returned to the incubator at 37° C. with 5% CO2 for an additional 24 hours.
(§4) The K562 cell line was cultured in IMDM with 10% FBS. For K562, cells were diluted with full growth media and plated in either a 96-well plate (50,000 cells in 50 uL media per well) or a 384-well plate (8,000-40,000 cells in 45 uL media per well). An 11-point 3-fold serial dilution of the compounds were made in DMSO then diluted in media in an intermediate plate. Compound was transferred from the intermediate plate to the cell plate with the top dose at a final concentration of 10 uM in the well. Final DMSO concentration was kept at or below 0.25%. Final volume was 100 uL for 96-well plate and 50 uL for 384-well plate. The cell plate was then placed in an incubator at 37° C. with 5% CO2 for 24 hours.
(§5) The cells were then gently washed with 50 uL-100 uL cold PBS before proceeding to addition of lysis buffer. 30 uL-50 uL of room temperature lysis buffer with DNAse I (and optionally RNAsin) was added to each well. Cells were shaken/mixed thoroughly at room temperature for 5-10 minutes for lysis to take place and then 3 uL-5 uL of room temperature stop solution was added and wells were shaken/mixed again. After 2-5 minutes, the cell lysate plate was transferred to ice for RT-qPCR reaction setup. The lysates could also be frozen at −80° C. for later use.
(§6) In some cases, a direct lysis buffer was used. An appropriate volume of 3× lysis buffer (10 mM Tris, 150 mM NaCl, 1.5%-2.5% Igepal and 0.1-1 U/uL RNAsin, pH 7.4) was directly added to either K562 or A673 cells in media and mixed by pipetting 3 times. The plates were then incubated at room temperature with shaking/rocking for 20-50 minutes to allow for lysis to take place. After this time, the cell lysate plate was transferred to ice to set up for the RT-qPCR reactions. The lysates could also be frozen at −80° C. for later use.
(§7) To set up 10 uL RT-qPCR reactions, cell lysates were transferred to 384-well qPCR plates containing the master mix according to the table below. The plates were sealed, gently vortexed, and spun down before the run. The volumes were adjusted accordingly in some instances where the reaction was carried in 20 μL. The table below summarizes the components of the RT-qPCR reactions:
(§8) The RT-qPCR reaction was performed using a QuantStudio (ThermoFisher) under the following fast cycling conditions. […]

Target C mRNA = experiment: Splicing RT-qPCR gene panel, Target C canonical junction (CJ) mRNA; details: Homo sapiens, Tables 4A/4B, read-out: Target C (IC50, decrease in CJ mRNA, gene panel)
Procedure: as §2, §3, §4, §5, §6, §7, §8

HTT mRNA [2] = experiment: Splicing RT-qPCR gene panel, HTT canonical junction (CJ) mRNA; details: Homo sapiens, Tables 4A/4B, read-out: HTT (IC50, decrease in CJ mRNA, gene panel)
Procedure: as §2, §3, §4, §5, §6, §7, §8

[3] = 24 h, A673 or K562 cells, 24 hours compound treatment, RT-qPCR
[4] = 24 h, A673 or K562 cells, 24 hours compound treatment, RT-qPCR, read-out: MYB CJ (IC50, decrease in canonical junction mRNA)
[5] = Tables 4A/4B, canonical junction qPCR panel, read-out: MYB (IC50, decrease in CJ mRNA, gene panel)

| SMILES | IC50 (HTT mRNA [1]) | AC50 (HTT mRNA [1]) | AC50 (MYB mRNA; [3]) | IC50 (MYB mRNA; [4]) | IC50 (MYB mRNA; [5]) | IC50 (SMN2 mRNA) | IC50 (Target C mRNA) | IC50 (HTT mRNA [2]) |
| --- | --- | --- | --- | --- | --- | --- | --- | --- |
| Cc1cn2cc(NC(=O)c3ccc(C4CC(C)(C)NC(C)(C)C4)c4cn(C)nc34)cc(F)c2n1 [Compound 212] | 1000 to 10000 nM | > 10000 nM | 1000 to 10000 nM | 100 to 1000 nM | 100 to 1000 nM | 100 to 1000 nM | > 10000 nM | 1000 to 10000 nM |
| Cc1cc2c(N3CCNCC3)ccc(C(=O)Nc3cc(F)c4nc(C)sc4c3)c2o1 [Compound 219] | > 10000 nM | > 10000 nM | 1000 to 10000 nM | 100 to 1000 nM | 100 to 1000 nM | 100 to 1000 nM | > 10000 nM | > 10000 nM |
| Cc1cn2cc(NC(=O)c3ccc(N4CCN(C)C(C)C4)c4cn(C)nc34)cc(F)c2n1 (stereo not shown) [Compound 229] | 100 to 1000 nM | 100 to 1000 nM | < 100 nM | < 100 nM | < 100 nM | < 100 nM | 1000 to 10000 nM | 100 to 1000 nM |
| Cn1cc2ccc(NC(=O)c3ccc(N4CCNCC4)c4cn(C)nc34)cc2n1 [Compound 230] | > 10000 nM | > 10000 nM | > 10000 nM | > 10000 nM | > 10000 nM | > 10000 nM | > 10000 nM | > 10000 nM |
| Cn1cc2c(F)cc(NC(=O)c3ccc(N4CCNCC4)c4cn(C)nc34)cc2n1 [Compound 231] | > 10000 nM | > 10000 nM | > 10000 nM | > 10000 nM | > 10000 nM | > 10000 nM | > 10000 nM | > 10000 nM |
| Cc1nc2c(F)cc(NC(=O)c3ccc(N4CCNCC4)c4cn(C)nc34)cc2s1 [Compound 235] | 1000 to 10000 nM | 1000 to 10000 nM | 100 to 1000 nM | 100 to 1000 nM | 100 to 1000 nM | < 100 nM | > 10000 nM | 1000 to 10000 nM |
| CC1=CC2=NC(C)=NC2C=C1NC(=O)c1ccc(N2CCNCC2)c2cn(C)nc12 (stereo not shown) [Compound 237] | 1000 to 10000 nM | 1000 to 10000 nM | < 100 nM | 100 to 1000 nM | 100 to 1000 nM | < 100 nM | > 10000 nM | 1000 to 10000 nM |
| Cc1cn2cc(NC(=O)c3ccc(N4CCNCC4)c4cn(C)nc34)cc(C)c2n1 [Compound 238] | 1000 to 10000 nM | 1000 to 10000 nM | 100 to 1000 nM | 100 to 1000 nM | 100 to 1000 nM | < 100 nM | > 10000 nM | 1000 to 10000 nM |
| CCC1CN(c2ccc(C(=O)Nc3cc(F)c4nc(C)cn4c3)c3nn(C)cc23)CCN1 (stereo not shown) [Compound 239] | 100 to 1000 nM | 100 to 1000 nM | 100 to 1000 nM | < 100 nM | < 100 nM | < 100 nM | 1000 to 10000 nM | 100 to 1000 nM |
| CC1=NC2C=C(NC(=O)c3ccc(N4CCNC(C)(C)C4)c4cn(C)nc34)C=C(F)C2=N1 (stereo not shown) [Compound 240] | 100 to 1000 nM | 100 to 1000 nM | < 100 nM | < 100 nM | < 100 nM | < 100 nM | 1000 to 10000 nM | 100 to 1000 nM |
| Cc1cn2cc(NC(=O)c3ccc(N4CC5(CNC5)C4)c4cn(C)nc34)cc(F)c2n1 [Compound 242] | 100 to 1000 nM | 1000 to 10000 nM | 100 to 1000 nM | < 100 nM | < 100 nM | < 100 nM | 1000 to 10000 nM | 100 to 1000 nM |
| Cc1cn2cc(NC(=O)c3ccc(N4CC5(CN(C)C5)C4)c4cn(C)nc34)cc(F)c2n1 [Compound 243] | 100 to 1000 nM | 100 to 1000 nM | < 100 nM | < 100 nM | < 100 nM | < 100 nM | 1000 to 10000 nM | 100 to 1000 nM |
| Cc1cn2cc(NC(=O)c3ccc(N(C)C4CC(C)(C)NC(C)(C)C4)c4cn(C)nc34)cc(F)c2n1 [Compound 244] | > 10000 nM | > 10000 nM | > 10000 nM | > 10000 nM | > 10000 nM | 100 to 1000 nM | > 10000 nM | > 10000 nM |
| CC1=NC2C=C(NC(=O)c3ccc(N(C)C4CCN(C)CC4)c4cn(C)nc34)C=C(F)C2=N1 (stereo not shown) [Compound 245] | 100 to 1000 nM | 100 to 1000 nM | 100 to 1000 nM | 100 to 1000 nM | 100 to 1000 nM | < 100 nM | 100 to 1000 nM | 100 to 1000 nM |
| Cc1cn2cc(NC(=O)c3ccc(N4CCNCC4)c4cn(C)nc34)ncc2n1 [Compound 246] | 1000 to 10000 nM | 1000 to 10000 nM | < 100 nM | < 100 nM | < 100 nM | < 100 nM | > 10000 nM | 1000 to 10000 nM |
| Cc1cn2nc(NC(=O)c3ccc(N4CCNCC4)c4cn(C)nc34)cc2c(C)n1 [Compound 247] | > 10000 nM | > 10000 nM | > 10000 nM | > 10000 nM | > 10000 nM | > 10000 nM | > 10000 nM | > 10000 nM |
| Cc1cn2cc(NC(=O)c3ccc(N4CCC(NC(C)(C)C)C4)c4cn(C)nc34)cc(F)c2n1 (stereo not shown) [Compound 249] | > 10000 nM | > 10000 nM | 100 to 1000 nM | 100 to 1000 nM | 100 to 1000 nM | < 100 nM | > 10000 nM | > 10000 nM |
| Cc1cn2nc(NC(=O)c3ccc(N4CCNCC4)c4cn(C)nc34)nc2c(C)n1 [Compound 253] | > 10000 nM | > 10000 nM | > 10000 nM | > 10000 nM | > 10000 nM | 1000 to 10000 nM | > 10000 nM | > 10000 nM |
| Cc1cn2cc(NC(=O)c3ccc(N4C[C@H]5CC[C@@H](C4)N5)c4cc(C)oc34)cc(F)c2n1 [Compound 255] | 1000 to 10000 nM | 1000 to 10000 nM | < 100 nM | 100 to 1000 nM | 100 to 1000 nM | < 100 nM | > 10000 nM | 1000 to 10000 nM |
| Cc1cn2cc(NC(=O)c3ccc(C4CCN(C)CC4)c4cc(C)oc34)cc(F)c2n1 [Compound 256] | 1000 to 10000 nM | 1000 to 10000 nM | 100 to 1000 nM | 100 to 1000 nM | 100 to 1000 nM | < 100 nM | > 10000 nM | 1000 to 10000 nM |
